Some test systems named below: NCI/ADR-RES ovarian; SF-268 CNS; SK-MEL-5 melanoma; UACC-62 melanoma; LOX IMVI melanoma; T-47D breast; RXF 393 renal; SNB-75 CNS; A549 NSCLC; SK-OV-3 ovarian; MDA-MB-435; MCF7 breast; SF-539 CNS; TK-10 renal; NCI-H522 lung.
Test in all cases: growth of human tumour cells (NCI), 48 h

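48-hour exposure; five concentrations; linearly interpolated endpoints. Definition used: TGI = concentration required for complete inhibition of growth.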 A value given as a limit tells only on which side of the number the result lay.

The record followed here is PubChem BioAssay (NCI).

In the case of `CN(C(=O)C1=CCCCCC1)c1ccccc1I`, the TGI was 68.7 µM with NCI/ADR-RES ovarian; 95.9 µM in the assay on SF-268 CNS; above 100 µM with SK-MEL-5 melanoma; above 100 µM with UACC-62 melanoma; above 100 µM in the assay with LOX IMVI melanoma; above 100 µM in the assay with T-47D breast. Further, the TGI was above 100 µM in the assay with RXF 393 renal; 79.7 µM with SNB-75 CNS; above 100 µM in the assay on A549 NSCLC; above 100 µM in the assay with SK-OV-3 ovarian; above 100 µM in the assay with MDA-MB-435; above 100 µM with MCF7 breast.

For `O=C1/C(=C/c2cccc([N+](=O)[O-])c2)CCCc2ccccc21`, the TGI worked out at 23.8 µM in the assay with NCI/ADR-RES ovarian; 28.6 µM with SF-539 CNS; 19.3 µM in the assay with SF-268 CNS; 21.6 µM in the assay with UACC-62 melanoma; 16.5 µM in the assay with LOX IMVI melanoma; 30.8 µM in the assay on TK-10 renal. Also, the TGI in the assay on SNB-75 CNS is 29.9 µM; in the assay with A549 NSCLC, 48 µM; with SK-OV-3 ovarian, 63.8 µM; in the assay on NCI-H522 lung it was 19.9 µM; with MDA-MB-435 it was 21.4 µM; in the assay on MCF7 breast, 15.3 µM.

Regarding `NN/C(=N\S(=O)(=O)c1cc(Cl)c(Oc2ccc([N+](=O)[O-])cc2Cl)c(Cl)c1)Nc1ccc(Cl)cc1`, the TGI was found to be 67.9 µM in the assay with NCI/ADR-RES ovarian; 31.3 µM in the assay with SF-539 CNS; 34.2 µM in the assay with SF-268 CNS; 29.4 µM in the assay on SK-MEL-5 melanoma; 28.8 µM in the assay with UACC-62 melanoma; 45 µM with LOX IMVI melanoma. Moreover, the TGI with TK-10 renal is 56.6 µM; in the assay with T-47D breast, 56.5 µM; with RXF 393 renal it was 28.4 µM; in the assay with SNB-75 CNS, 56.3 µM; in the assay on A549 NSCLC, 41.8 µM; in the assay on SK-OV-3 ovarian it was above 100 µM. Moreover, in the assay on MCF7 breast, the TGI worked out at 58.4 µM.

For the compound `CC1=NC(=Cc2ccc(Cl)cc2)C(=O)N1n1c(-c2ccccc2)nc2ccccc2c1=O`, the TGI in the assay on SF-539 CNS, in the assay on SF-268 CNS, with SK-MEL-5 melanoma, in the assay with UACC-62 melanoma, in the assay on LOX IMVI melanoma and in the assay with TK-10 renal was above 100 µM in each case. Besides, the TGI was 74.3 µM in the assay on T-47D breast; 99.6 µM in the assay on SNB-75 CNS; above 100 µM in the assay with A549 NSCLC; above 100 µM with SK-OV-3 ovarian; 43 µM in the assay on NCI-H522 lung; above 100 µM with MDA-MB-435. For the same compound, the TGI with MCF7 breast was above 100 µM.

Consider `Oc1cn(-c2ccc(Cl)cc2)nc1-c1nnc(Nc2ccccc2)o1`, for which the TGI in the assay with NCI/ADR-RES ovarian turned out to be 30.1 µM; in the assay on SF-539 CNS, 30.8 µM; in the assay on SF-268 CNS, 33.7 µM; with SK-MEL-5 melanoma, 23.6 µM; in the assay on UACC-62 melanoma it was 30.6 µM; in the assay with TK-10 renal it was 38.1 µM. The TGI amounted to 50.3 µM with T-47D breast; 39.6 µM in the assay with RXF 393 renal; 45.2 µM with SNB-75 CNS; 43.3 µM in the assay with A549 NSCLC; 49.4 µM in the assay with SK-OV-3 ovarian; 35.4 µM in the assay with NCI-H522 lung. The TGI was 34.3 µM with MDA-MB-435 and 33.9 µM in the assay on MCF7 breast.

As for `CC(=O)OCC(OC(C)=O)C(OC(C)=O)C(/C=N/N(C(C)=O)S(=O)(=O)c1ccc(/C=C2\NC(=O)NC2=O)cc1)OC(C)=O` (stereo not given), the TGI in the assay with NCI/ADR-RES ovarian, in the assay with SF-539 CNS, in the assay on SF-268 CNS, in the assay on SK-MEL-5 melanoma, in the assay with UACC-62 melanoma and with TK-10 renal was above 100 µM in each case. Besides, the TGI in the assay on T-47D breast, in the assay with RXF 393 renal, in the assay on SNB-75 CNS, in the assay with A549 NSCLC, in the assay with SK-OV-3 ovarian and in the assay with MDA-MB-435 was above 100 µM each time. The TGI in the assay on MCF7 breast was above 100 µM.

With `COc1cc(C2c3cccc4cccc(c34)C3CCC(=O)N32)cc(O)c1O` (stereo not given), the TGI in the assay with NCI/ADR-RES ovarian, with SF-539 CNS, in the assay with UACC-62 melanoma, with T-47D breast, in the assay with RXF 393 renal and in the assay with SNB-75 CNS was above 50 µM in each case. Besides, the TGI in the assay on A549 NSCLC, in the assay on SK-OV-3 ovarian, with MDA-MB-435 and in the assay on MCF7 breast was above 50 µM in each case.

As for `CC1CCCc2c(-c3ccc(Cl)cc3)nc(N)c(C#N)c21` (stereo not given), the TGI in the assay on NCI/ADR-RES ovarian is 71.3 µM; in the assay with SF-539 CNS it was 92.3 µM; in the assay with SF-268 CNS, above 100 µM; in the assay on SK-MEL-5 melanoma it was 38.5 µM; in the assay with UACC-62 melanoma, 40.2 µM; in the assay with LOX IMVI melanoma, 68 µM. Also, the TGI is above 100 µM with TK-10 renal; 35.6 µM with T-47D breast; 93.2 µM in the assay on RXF 393 renal; 50.6 µM in the assay on SNB-75 CNS; 83.6 µM in the assay with SK-OV-3 ovarian; above 100 µM in the assay on MDA-MB-435. Further, the TGI in the assay with MCF7 breast was above 100 µM.

For the compound `CCCOC(=O)c1cc(C(=CCC[C@H]2CC[C@@]3(C)[C@@H](CC[C@@H]4[C@@H]3CC[C@]3(C)[C@@H](C(C)CCCC(C)C)CC[C@@H]43)C2)c2cc(Cl)c(O)c(C(=O)OCCC)c2)cc(Cl)c1O` (stereo not given in full), the TGI with NCI/ADR-RES ovarian, with SF-268 CNS, in the assay on SK-MEL-5 melanoma, in the assay with UACC-62 melanoma, with LOX IMVI melanoma and with T-47D breast was above 50 µM each time. Moreover, the TGI in the assay on SNB-75 CNS and in the assay with MDA-MB-435 was above 50 µM in each case.

Regarding `Cc1ccc(-c2c(C#N)c(-c3ccc(N(C)C)cc3)c(C#N)c(=O)n2NS(=O)(=O)c2ccccc2)cc1`, the TGI was above 100 µM in the assay with NCI/ADR-RES ovarian; 83.4 µM in the assay on SF-539 CNS; above 100 µM in the assay with SF-268 CNS; 36.8 µM in the assay on SK-MEL-5 melanoma; above 100 µM in the assay on UACC-62 melanoma; above 100 µM in the assay with LOX IMVI melanoma. The TGI with TK-10 renal was above 100 µM; in the assay on RXF 393 renal, 68.1 µM; in the assay with SNB-75 CNS, above 100 µM; with A549 NSCLC, above 100 µM; in the assay on SK-OV-3 ovarian, above 100 µM; in the assay on NCI-H522 lung, above 100 µM. Further, the TGI with MDA-MB-435 and in the assay with MCF7 breast was above 100 µM each time.

Turning to `COc1ccc(NC(=O)C2=C(SC)C(C#N)C(=O)N=C2N)cc1` (stereo not given), the TGI in the assay on SF-539 CNS, in the assay on SF-268 CNS, in the assay on SK-MEL-5 melanoma, in the assay on UACC-62 melanoma, in the assay on LOX IMVI melanoma and with TK-10 renal was above 100 µM each time. In addition, the TGI was above 100 µM in the assay with T-47D breast; above 100 µM in the assay on RXF 393 renal; above 100 µM in the assay with A549 NSCLC; above 100 µM with SK-OV-3 ovarian; 32.1 µM in the assay with NCI-H522 lung; above 100 µM in the assay on MDA-MB-435. The TGI in the assay on MCF7 breast was above 100 µM.
